Reference: patent US20220401440A1, “DOSING REGIMENS FOR A PROTEIN KINASE C INHIBITOR” (IDEAYA BIOSCIENCES, INC., priority 2019, published 2022)
Where “and” joins values, the source holds several entries; their conditions need not be identical. Identical values can stand only once. Like-named read-outs stand apart in the source and are kept apart here.

What was measured:
[1] = Phase 1/2 study: plasma pharmacokinetics of Compound (I) in patients (LC-MS/MS, non-compartmental analysis); format: in vivo, human
Protocol: The following example presents a phase 1/2 study of Compound (I) in patients with solid tumors harboring GNAQ/11 mutations or PRKC fusions.
Patients with MUM were sequentially enrolled into Cohort 1 or Cohort 2. Enrollment into Cohort 2 was not initiated until enrollment into Cohort 1 was completed and the dose considered safe. • a. Cohort 1. 6 patients were sequentially enrolled and received 300 mg twice a day (BID), daily, for 28-day treatment cycles. • b. Cohort 2. 6 patients were sequentially enrolled and received 400 mg BID, preceded by an initial 7-day 200 mg BID run-in period, for 28-day treatment cycles. All patients continue to receive treatment with Compound (I) unless the subject experiences one or more of the following: • Adverse event • Lost to follow-up • Physician decision • Progressive disease • Study termination by the Sponsor • Patient/guardian decision • Protocol deviation • Non-compliance with protocol • Death • Pregnancy NUMBER OF SUBJECTS: 12 patients
The following example presents pharmacokinetic results from the study as described in Example 1.
Blood samples were collected on Cycle 1 Day 1 and Day 15 from patients who were administered 300 mg BID of Compound (I), and on Cycle 1 Day 8 and Day 22 from patients who were administered 200 mg BID for 7 days followed by 400 mg BID of Compound (I) for the remainder of the treatment cycle. The plasma samples were processed by protein precipitation (see Ahuja S and Dong M. W, Handbook of Pharmaceutical Analysis by HPLC, Elsevier Inc., Chapter 17, page 433, 2005) and analyzed using an LC-MS/MS method; Quantification was achieved using Compound (I) peak area to internal standard (3-amino-N-(3-(4-amino-4-(methyl-d3)piperidin-1-yl)pyridin-2-yl)-6-(3-(trifluoromethyl)pyridin-2-yl)pyrazine-2-carboxamide) peak area ratios. Concentrations of the calibration curve standards, quality control samples, and patient samples were determined by the method of 1/x^2 weighted least squares linear regression.
The Pharmacokinetic parameters were calculated using Phoenix WinNonlin software (non-compartmental analysis).

[2] = tested on: metastatic uveal melanoma (MUM); conditions: cited from earlier work
[3] = Hypotension studies: adverse events, single agent Compound (I) BID schedule (Table 5); format: in vivo, human
[4] = cited from earlier work; for Dose limiting toxicities (DLTs): evaluable patients
[5] = Hypotension studies: adverse events, single-agent Compound (I), 300 mg BID vs 400 mg BID with 7-day 200 mg run-in (Tables 6, 7); format: in vivo
Description: Patients with MUM were sequentially enrolled into Cohort 1 or Cohort 2. Enrollment into Cohort 2 was not initiated until enrollment into Cohort 1 was completed and the dose considered safe. • a. Cohort 1. […] Cohort 2. […] All patients continue to receive treatment with Compound (I) unless the subject experiences one or more of the following: • Adverse event • Lost to follow-up • Physician decision • Progressive disease • Study termination by the Sponsor • Patient/guardian decision • Protocol […]

[6] = cohort that received BID dosing of 200 to 400 mg
[7] = 300 mg BID, N = 18, regardless of study drug relationship
[8] = 400 mg, N = 6, regardless of study drug relationship
[9] = All BID Patients, N = 30, regardless of study drug relationship
[10] = 300 mg BID, N = 26, regardless of study drug relationship
[11] = 400 mg BID with 7-day 200 mg run-in, N = 30
[12] = 400 mg BID with 7-day 200 mg run-in, N = 30, regardless of study drug relationship
[13] = All Patients, N = 56, regardless of study drug relationship

For `CC1(N)CCN(c2cccnc2NC(=O)c2nc(-c3ncccc3C(F)(F)F)cnc2N)CC1` [Compound (I), 3-amino-N-(3-(4-amino-4-methylpiperidin-1-yl)pyridin-2-yl)-6-(3-(trifluoromethyl)pyridin-2-yl)pyrazine-2-carboxamide], the Tmax ([1]; individual patients, 400 mg BID with 200 mg run-in, C1 Day 22) was 2 h and 1 h and 6 h and 0.5 h and 4 h, the “mean Cmin at steady state, higher at 400 mg BID (with 200 mg run-in) than at 300 mg BID” value ([1]; steady state) was ~40% and the “mean steady state exposure (200 mg BID 7 days then 400 mg BID) vs 300 mg BID” value ([1]; steady state) was “higher mean steady state exposure”. For the same molecule, the “confirmed partial responses (PRs)” value ([2]; 68 patients, QD and BID, as of September 2018, preliminary) was “six”, the “unconfirmed PRs” value ([2]; 68 patients, as of September 2018, preliminary) was “two” and the “confirmed PRs” value [2, 6] was “Four”. For the same molecule, the “patients with SD as best response (2 being unconfirmed PRs)” value [2, 6] was 18, the “Hypotension, all grades” value [3, 7] was 3 (16.7) and the “Hypotension, grade >3” value [3, 7] was 0. The “Hypotension, all grades” value [3, 8] was 4 (66.7), the “Hypotension, grade >3” value [3, 8] was 1 (16.7) and the “Hypotension, all grades” value [3, 9] was 7 (23.3). For the same molecule, the “Hypotension, grade >3” value [3, 9] was 1 (3.3), the “Dose limiting toxicities (DLTs)” value ([4]; BID schedule) was 2 of 17 and the maximum tolerated dose ([4]; BID schedule) was 400 mg BID. For the same molecule, the “Dose limiting toxicities (DLTs)” value ([4]; QD schedule) was 7 of 38, the maximum tolerated dose ([4]; QD schedule) was 500 mg QD and the “most common DLT” value ([4]; human, in vivo) was “hypotension”. The “recommended dose for expansion (RDE)” value ([4]; human, in vivo) was 300 mg BID, the “Hypotension, all grades, treatment-emergent, suspected to be study related” value (shortened to “Hypotension, all grades … to be study related”) ([5]; 300 mg BID, N = 26) was 1 (3.8) n (%) and the “Hypotension, grade 3/4, treatment-emergent, suspected to be study related” value ([5]; 300 mg BID, N = 26) was 0 n (%). The “Hypotension, all grades” value [5, 10] was 1 (3.8) n (%), the “Hypotension, grade 3/4” value [5, 10] was 0 n (%) and the “Hypotension, all grades … to be study related” value [5, 11] was 2 (6.7) n (%). For the same molecule, the “Hypotension, grade 3/4, treatment-emergent, suspected to be study related” value [5, 11] was 0 n (%), the “Hypotension, all grades” value [5, 12] was 4 (13.3) n (%) and the “Hypotension, grade 3/4” value [5, 12] was 0 n (%). The “Hypotension, all grades … to be study related” value ([5]; All Patients, N = 56) was 3 (5.4) n (%), the “Hypotension, grade 3/4, treatment-emergent, suspected to be study related” value ([5]; All Patients, N = 56) was 0 n (%) and the “Hypotension, all grades” value [5, 13] was 5 (8.9) n (%). The “Hypotension, grade 3/4” value [5, 13] was 0 n (%) and the “frequency of hypotension at 400 mg BID with 200 mg run-in vs 400 mg BID alone” value ([5]; in vivo) was “less frequently”.
